According to US7727993B2, “Administering adenosine A2A receptor antagonist to reduce or suppress side effects of parkinson's disease therapy” (Kyowa Hakko Kirin Co., Ltd., priority 2002, dated 2010):
Entries after “also recorded” stand apart in the source; their conditions may differ.

How the values were obtained:
[1] = tested on: 6-hydroxydopamine lesion rats; test: In vivo microdialysis of GABA and glutamate in substantia nigra pars reticulata (Example 3); design: species or system rat
Protocol: GABA and glutamate concentrations in an output nucleus of basal ganglia, substantia nigra pars reticulata (SNr), are measured in the 6-hydroxydopamine lesion rats and the chronically L-DOPA-treated rats after 6-hydroxydopamine lesion. Effect of adenosine A2A receptor selective antagonists on GABA and glutamate levels in SNr and dyskinesias was examined. 6-hydroxydopamine (8 μg) was injected into the left medial forebrain bundle in a rat. One week after the lesion, the rats were then tested for contralateral turning by injecting apomorphine (0.1 mg/kg s.c.). Only those animals showing robust contralateral turning were used in subsequent experiments. […] Rats were placed in each test chamber and the microdialysis probe inserted into SNr was attached to a fluid swivel (TCS2-23, Eicom) that allowed free movement (also sustained rotational behavior). Probes were continuously perfused with a modified Ringer's solution (1.2 mmol/L CaCl2, 2.7 mmol/L KCl, 148 mmol/L NaCl, and 0.85 mmol/L MgCl2; pH 7, artificial cerebrospinal fluid solution) at a rate of 2 μL/min via a microinjection pump (CMA/100, Carnegie […] AB). After stabilization of basal level of release for 3-4 h, 4 samples (60 μL each) during 2 h of perfusion were collected using a fraction collector (CMA/140, Carnegie […]). […] The samples were immediately assayed or frozen and stored in a deep freeze (-80° C.) before assays. GABA and glutamate were analyzed using reverse phase high-performance liquid chromatograph with fluorescence detection after pre-column derivatization of the amino acids with orthophthaldialdehyde reagent. Lindroth and Mopper (1979).

[2] = tested on: chronically L-DOPA-treated 6-hydroxydopamine lesion rats; test: Abnormal involuntary movements (AIMs) scoring, L-DOPA induced dyskinesia (Example 3); type: in vivo, rat
Protocol: 6-hydroxydopamine (8 μg) was injected into the left medial forebrain bundle in a rat. One week after the lesion, the rats were then tested for contralateral turning by injecting apomorphine (0.1 mg/kg s.c.). Only those animals showing robust contralateral turning were used in subsequent experiments.
During the chronic treatment of L-DOPA, recording of severity scale of AIMs were carried out. In addition, an amplitude-based scale for each limb and axial AIMs was scored during a microdialysis study. Amplitude scores of limb or axial AIMs (each ranging from 0 to 4) was rated based on both the magnitude of paw/limb translocation and of the visible involvement of distal versus proximal muscle groups or on the lateral deviation (or torsion) of an animal's neck and trunk from the longitudinal axis of its body, respectively.

[3] = tested on: MPTP cynomologus monkeys; test: Chronic L-DOPA alone or with KW-6002 in drug-naive MPTP parkinsonian monkeys (Example 4); type: in vivo; conditions: L-DOPA alone group versus L-DOPA plus KW-6002 group; week 3 and 4; FIG. 8
Protocol: ANIMALS: 8 (eight) female drug-naïve cynomologus monkeys weighing between 3 and 5 kg were used. They were rendered parkinsonian by subcutaneous infusion of MPTP (0.5 mg daily) until development of an obvious parkinsonian Syndrome (akinesia, hunched posture and tremor associated with a disability score on our scale of 6 or more). The cumulative dose necessary was variable: from 3.5 to 23.5 mg. The animals were allowed to recover during at least one month except an animal who had to be treated earlier because of marked akinesia. They were scored at least once daily. The disability score remained stable throughout that period. […] The drug was administered orally with a special capsule handler. The animals in the KW-6002 group also received this compound (90 mg/kg) by the oral route. The animals were observed daily (from Monday to Friday) in their cages through a one-way screen and video recordings were made of significant events (abnormal behavior—dyskinesias). They were scored on disability scale and eventually dyskinesia rating scale, before and during the effect. The treatment with L-DOPA was continued for one month.

[4] = tested on: MPTP-treated common marmosets; test: L-DOPA induced dyskinesia in MPTP-treated marmosets primed with L-DOPA (Example 5); type: in vivo; conditions: L-DOPA 2.5 mg/kg oral
Protocol: METHODS: MPTP (Sigma-Aldrich, St. Louis, Mo., USA) was dissolved in physiological saline and administered at a dose of 2.0 mg/kg s.c. daily for 5 days. Then, MPTP 2 mg/kg were further administered approximately 3 weeks.
The dyskinesia of the animals was scored using the rating scale described in Table 4. […] The score was calculated as the L-DOPA pre value. On the next day the animals received vehicle for the vehicle control value. […] Animals were assessed for dyskinesia on days 1, 3, 5, 7, 14, 21 and 28 according to the rating scale.
Abnormal movement such as, orofacial movements, myoclonus and complex stereotypic behaviors (e.g., elaborate checking, obsessive grooming), are exclude from dyskinesia rating.
Remarks According to Dyskinesia. Dystonia (arm, leg and trunk): abnormal sustained posture (ex. leg elevation). Stereotypic reaching (arm) Athetosis (arm and leg): writhing twisting movements. Chorea (arm and leg): abnormal rapid (dance like) movements of limbs. Akathisia: motor restlessness. Dyskinesia score is become higher according to severity of dyskinesia. The maximal score is four points.

[5] = L-DOPA treatment 2 weeks after 6-hydroxydopamine lesion
[6] = L-DOPA treatment 3 weeks after 6-hydroxydopamine lesion

N[C@@H](Cc1ccc(O)c(O)c1)C(=O)O [L-DOPA]
nigral GABA level ([1]; 6-hydroxydopamine lesion rats, change from pre-value, KW-6002 1 mg/kg p.o., FIG. 2A, 3A): facilitation; also recorded: significant increases | nigral glutamate level ([1]; 6-hydroxydopamine lesion rats, change from pre-value, KW-6002 1 mg/kg p.o., FIG. 2B, 3B): facilitation; also recorded: significant increases | basal level of nigral GABA ([1]; L-DOPA treatment 1 week (20 mg/kg orally twice a day) after 6-hydroxydopamine lesion): 19.3 ± 2.3 nmol/L | basal level of nigral glutamate ([1]; L-DOPA treatment 1 week after 6-hydroxydopamine lesion): 147.5 ± 38.1 nmol/L | basal level of nigral GABA [1, 5]: 20.9 ± 6.8 nmol/L | basal level of nigral glutamate [1, 5]: 112.0 ± 47.1 nmol/L | basal level of nigral GABA [1, 6]: 23.6 ± 4.5 nmol/L | basal level of nigral glutamate [1, 6]: 425.4 ± 99.6 nmol/L | nigral GABA levels after administration ([1]; chronically L-DOPA-treated 6-hydroxydopamine lesion rats, FIG. 5A): without effect | nigral glutamate levels after administration ([1]; chronically L-DOPA-treated 6-hydroxydopamine lesion rats, FIG. 5B): increased | basal nigral glutamate concentration during chronic L-DOPA (in words) ([1]; constant until 2 weeks): drastically increase in 3 weeks | basal nigral GABA levels during chronic L-DOPA (in words) ([1]; throughout 1 to 3 weeks): maintained unchanged | average maximum AIM scores ([2]; 2 to 3 weeks chronic L-DOPA, from 10 min to 3 hrs after L-DOPA administration): 9 | AIMs (sum of the amplitude score of limb and axial AIMs) ([2]; chronically L-DOPA-treated rats, FIG. 4): marked AIMs | level of dyskinesia [3]: reached a higher level | dyskinesias induced by L-DOPA [4]: mild dyskinesias
